Results on 4 compounds are retold here after BindingDB's records for doi:10.1021/acs.jmedchem.7b01670 (Vrije Universiteit Amsterdam, 2018).

One assay deals with T1, Phosphodiesterase (Trypanosoma brucei, UniProt Q8WQX9).
T1 sequence (Q8WQX9 whole entry): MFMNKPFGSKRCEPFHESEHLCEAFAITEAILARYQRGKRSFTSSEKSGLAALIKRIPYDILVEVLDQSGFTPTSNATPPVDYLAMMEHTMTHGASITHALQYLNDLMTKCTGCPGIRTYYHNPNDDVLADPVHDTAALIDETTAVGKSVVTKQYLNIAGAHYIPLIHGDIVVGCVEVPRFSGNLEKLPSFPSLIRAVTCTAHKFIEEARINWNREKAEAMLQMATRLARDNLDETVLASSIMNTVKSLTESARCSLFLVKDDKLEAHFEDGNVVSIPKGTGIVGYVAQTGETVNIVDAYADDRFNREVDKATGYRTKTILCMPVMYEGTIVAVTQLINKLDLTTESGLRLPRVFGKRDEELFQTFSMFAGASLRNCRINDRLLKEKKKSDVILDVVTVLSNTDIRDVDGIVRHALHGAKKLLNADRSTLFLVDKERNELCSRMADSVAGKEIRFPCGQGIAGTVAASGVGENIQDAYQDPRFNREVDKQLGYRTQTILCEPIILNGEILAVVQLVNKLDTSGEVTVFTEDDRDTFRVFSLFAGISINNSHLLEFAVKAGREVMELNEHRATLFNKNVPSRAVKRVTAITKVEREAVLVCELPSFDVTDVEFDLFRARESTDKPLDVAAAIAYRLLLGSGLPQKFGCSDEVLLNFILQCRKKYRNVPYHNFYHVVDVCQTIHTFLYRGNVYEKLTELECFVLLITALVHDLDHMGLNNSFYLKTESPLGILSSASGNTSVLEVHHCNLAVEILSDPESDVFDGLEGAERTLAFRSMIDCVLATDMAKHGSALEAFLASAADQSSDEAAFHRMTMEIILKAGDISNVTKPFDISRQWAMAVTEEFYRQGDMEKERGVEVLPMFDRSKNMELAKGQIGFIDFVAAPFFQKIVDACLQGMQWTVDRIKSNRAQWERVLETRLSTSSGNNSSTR
The experiment in a line: Inhibition of full length Trypanosoma brucei PDEB1 expressed in Sf21 insect cells using cAMP as substrate by scintillation proximity assay.

Assay [1] addresses cAMP-specific 3',5'-cyclic phosphodiesterase 4B (Homo sapiens, UniProt Q07343). As to the kind of experiment: Inhibition of full length recombinant human PDE4B1 expressed in Sf21 insect cells using cAMP as substrate by scintillation proximity assay.

Sequence of cAMP-specific 3',5'-cyclic phosphodiesterase 4B (Q07343 whole entry): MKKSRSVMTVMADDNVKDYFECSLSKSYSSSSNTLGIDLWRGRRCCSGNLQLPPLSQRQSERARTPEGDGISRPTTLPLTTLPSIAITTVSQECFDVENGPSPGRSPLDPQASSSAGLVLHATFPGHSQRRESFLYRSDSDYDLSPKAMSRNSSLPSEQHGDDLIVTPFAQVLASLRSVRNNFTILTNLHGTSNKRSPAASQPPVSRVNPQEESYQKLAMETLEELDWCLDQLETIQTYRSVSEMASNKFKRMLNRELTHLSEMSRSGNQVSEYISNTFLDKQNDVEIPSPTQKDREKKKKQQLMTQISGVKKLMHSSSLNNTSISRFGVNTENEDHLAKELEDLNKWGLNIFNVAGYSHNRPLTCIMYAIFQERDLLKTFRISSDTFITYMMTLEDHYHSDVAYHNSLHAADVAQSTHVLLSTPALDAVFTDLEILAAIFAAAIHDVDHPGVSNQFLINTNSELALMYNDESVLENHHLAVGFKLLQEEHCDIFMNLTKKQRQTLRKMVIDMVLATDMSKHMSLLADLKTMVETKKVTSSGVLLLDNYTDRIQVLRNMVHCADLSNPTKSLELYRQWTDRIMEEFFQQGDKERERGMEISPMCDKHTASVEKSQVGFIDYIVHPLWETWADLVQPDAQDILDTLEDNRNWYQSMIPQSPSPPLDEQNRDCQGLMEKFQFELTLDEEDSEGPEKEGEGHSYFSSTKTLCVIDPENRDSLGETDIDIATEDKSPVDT

Regarding `COc1ccc(C2=NN(C3CCCCCC3)C(=O)[C@@H]3CC=CC[C@H]23)cc1-c1ccc(C(=O)N2CNC(=O)C2)cc1`, the inhibition constant (Ki) (at Phosphodiesterase; in assay [1]) was 0.631 µM throughout.

As to `COc1ccc(C2=NN(C3CCCCCC3)C(=O)[C@@H]3CC=CC[C@H]23)cc1-c1ccc(C(=O)N2CC(=O)N(C)C2)cc1`, the Ki on Phosphodiesterase was 1.58 µM; in assay [1] it was 2.51 µM.

On to `COc1ccc(C2=NN(C3CCCCCC3)C(=O)[C@@H]3CC=CC[C@H]23)cc1-c1ccc(C(=O)N2CCC(=O)C2)cc1`, for which the Ki on Phosphodiesterase amounted to 1 µM; in assay [1], 3.16 µM.

On to `COc1ccc(C2=NN(C3CCCCCC3)C(=O)[C@@H]3CC=CC[C@H]23)cc1-c1ccc(C(=O)NCC(N)=O)cc1`, for which the values for the Ki (on Phosphodiesterase; in assay [1]) were 0.04 µM and 0.63 µM, respectively.
